Reference: publication PMC2731242, “Oleic Acid Biosynthesis in Plasmodium falciparum: Characterization of the Stearoyl-CoA Desaturase and Investigation as a Potential Therapeutic Target” (PLoS ONE, 2009)

Target: T1, stearoyl-CoA Δ9-desaturase (PfSCD, PFE0555w) (Plasmodium falciparum, UniProt Q8I0W9)
T1 construct: gene PF3D7_0511200; native enzyme in crude schizont lysate (500 µg total protein)
Assay: cell-free desaturase assay in schizont lysates, […]-stearoyl-CoA to oleic acid, silver nitrate TLC
Assay type: biochemical

T1 sequence (Q8I0W9 entry or part of it, stated change not applied): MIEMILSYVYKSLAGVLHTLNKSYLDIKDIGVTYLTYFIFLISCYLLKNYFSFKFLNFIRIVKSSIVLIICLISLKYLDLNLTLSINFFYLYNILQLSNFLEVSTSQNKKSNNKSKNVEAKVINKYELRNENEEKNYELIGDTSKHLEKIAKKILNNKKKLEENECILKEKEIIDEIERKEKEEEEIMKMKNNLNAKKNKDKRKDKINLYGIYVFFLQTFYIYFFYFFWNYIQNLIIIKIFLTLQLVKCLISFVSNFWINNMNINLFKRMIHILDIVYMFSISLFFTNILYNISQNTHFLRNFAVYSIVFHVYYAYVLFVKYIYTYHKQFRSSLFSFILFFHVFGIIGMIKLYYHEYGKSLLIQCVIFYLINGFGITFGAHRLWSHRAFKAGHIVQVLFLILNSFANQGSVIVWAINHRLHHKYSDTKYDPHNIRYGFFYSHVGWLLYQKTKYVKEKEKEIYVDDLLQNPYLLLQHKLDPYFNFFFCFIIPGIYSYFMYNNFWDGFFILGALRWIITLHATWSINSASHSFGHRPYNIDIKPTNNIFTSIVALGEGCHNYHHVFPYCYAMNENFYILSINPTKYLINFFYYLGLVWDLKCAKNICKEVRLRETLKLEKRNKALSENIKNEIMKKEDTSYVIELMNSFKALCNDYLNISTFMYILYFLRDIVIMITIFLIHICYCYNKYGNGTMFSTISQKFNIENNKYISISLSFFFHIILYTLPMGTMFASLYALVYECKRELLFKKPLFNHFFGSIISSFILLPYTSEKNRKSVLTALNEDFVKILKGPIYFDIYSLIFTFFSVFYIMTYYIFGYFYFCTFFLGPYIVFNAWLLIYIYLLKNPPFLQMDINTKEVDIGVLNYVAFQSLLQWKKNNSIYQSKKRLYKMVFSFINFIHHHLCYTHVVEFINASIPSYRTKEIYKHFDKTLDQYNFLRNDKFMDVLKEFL

IC50: 105 µM
Structure (SMILES): CCCCCCCCC1=C(CCCCCCCC(=O)OC)C1 [MeSter, methyl sterculate]
